# Counter-ions that a name gives are not always drawn. Like-named read-outs stand apart in the source and are kept apart here.
# What was measured:
# Ent. cloacae, 03400 = assay: Antibacterial activity (MIC), Table 1: Ent. cloacae, 03400; format: cell-based
# Method: (§1) *Determined by the standard method of the Japan Society of Chemoterapy:
# (§2) (MuellerHinton Broth medium), 10^6 /ml of bacteria were seeded and
# (§3) incubated at 37° C. for 18 hours.
# S. epidermidis, 56500 = assay: Antibacterial activity (MIC), Table 1: S. epidermidis, 56500; format: cell-based; conditions: Staphylococcus epidermidis, Mueller-Hinton Broth, 10^6/ml, 37° C., 18 hours
# Method: as §1, §2, §3
# Pr. vulgaris, 08602 = assay: Antibacterial activity (MIC), Table 1: Pr. vulgaris, 08602; format: cell-based; conditions: Proteus vulgaris, Mueller-Hinton Broth, 10^6/ml, 37° C., 18 hours
# Method: as §1, §2, §3
# S. aureus, 209 P = assay: Antibacterial activity (MIC), Table 1: S. aureus, 209 P; format: cell-based; conditions: Staphylococcus aureus, Mueller-Hinton Broth, 10^6/ml, 37° C., 18 hours
# Method: as §1, §2, §3
# E. coli, NIHJ = assay: Antibacterial activity (MIC), Table 1: E. coli, NIHJ; format: cell-based; conditions: Escherichia coli, Mueller-Hinton Broth, 10^6/ml, 37° C., 18 hours
# Method: as §1, §2, §3
# Ps. aeruginosa, 32234 = assay: Antibacterial activity (MIC), Table 1: Ps. aeruginosa, 32234; format: cell-based; conditions: Pseudomonas aeruginosa, Mueller-Hinton Broth, 10^6/ml, 37° C., 18 hours
# Method: as §1, §2, §3
# Sh. flexneri, 2a, 5503 = assay: Antibacterial activity (MIC), Table 1: Sh. flexneri, 2a, 5503; format: cell-based; conditions: Shigella flexneri, Mueller-Hinton Broth, 10^6/ml, 37° C., 18 hours
# Method: as §1, §2, §3
# Ps. aeruginosa, 32233 = assay: Antibacterial activity (MIC), Table 1: Ps. aeruginosa, 32233; format: cell-based; conditions: Pseudomonas aeruginosa, Mueller-Hinton Broth, 10^6/ml, 37° C., 18 hours
# Method: as §1, §2, §3
# K. pneumoniae, type 1 = assay: Antibacterial activity (MIC), Table 1: K. pneumoniae, type 1; format: cell-based; conditions: Klebsiella pneumoniae, TYPE1, Mueller-Hinton Broth, 10^6/ml, 37° C., 18 hours
# Method: as §1, §2, §3
# Pr. mirabilis, IFO-3849 = assay: Antibacterial activity (MIC), Table 1: Pr. mirabilis, IFO-3849; format: cell-based; conditions: Proteus mirabilis, IFO3849, Mueller-Hinton Broth, 10^6/ml, 37° C., 18 hours
# Method: as §1, §2, §3
# Ps. aeruginosa, 32121 = assay: Antibacterial activity (MIC), Table 1: Ps. aeruginosa, 32121; format: cell-based; conditions: Pseudomonas aeruginosa, Mueller-Hinton Broth, 10^6/ml, 37° C., 18 hours
# Method: as §1, §2, §3
# Ps. aeruginosa, 32104 = assay: Antibacterial activity (MIC), Table 1: Ps. aeruginosa, 32104; format: cell-based; conditions: Pseudomonas aeruginosa, Mueller-Hinton Broth, 10^6/ml, 37° C., 18 hours
# Method: as §1, §2, §3
# Str. pyogenes, G-36 = assay: Antibacterial activity (MIC), Table 1: Str. pyogenes, G-36; format: cell-based; conditions: Streptococcus pyogenes, G36, Mueller-Hinton Broth, 10^6/ml, 37° C., 18 hours
# Method: as §1, §2, §3
# Ser. marcescens, 10104 = assay: Antibacterial activity (MIC), Table 1: Ser. marcescens, 10104; format: cell-based; conditions: Serratia marcescens, Mueller-Hinton Broth, 10^6/ml, 37° C., 18 hours
# Method: as §1, §2, §3
# [1] = test system: Str. faecalis, ATCC-19433; assay: Antibacterial activity (MIC), Table 1: Str. faecalis, ATCC-19433; format: cell-based; conditions: Enterococcus faecalis, ATCC19433, Mueller-Hinton Broth, 10^6/ml, 37° C., 18 hours
# Method: as §1, §2, §3
# B. subtilis, ATCC-6633 = assay: Antibacterial activity (MIC), Table 1: B. subtilis, ATCC-6633; format: cell-based; conditions: Bacillus subtilis, ATCC6633, Mueller-Hinton Broth, 10^6/ml, 37° C., 18 hours
# Method: as §1, §2, §3
# Ps. aeruginosa, 32122 = assay: Antibacterial activity (MIC), Table 1: Ps. aeruginosa, 32122; format: cell-based; conditions: Pseudomonas aeruginosa, Mueller-Hinton Broth, 10^6/ml, 37° C., 18 hours
# Method: as §1, §2, §3
# Gram-positive bacteria = assay: Antibacterial activity against Gram-positive bacteria (summary of Table 1); format: cell-based; conditions: in words
# Method: as §1, §2, §3
# Pseudomonas aeruginosa = assay: Antibacterial activity against Pseudomonas aeruginosa (summary of Table 1); format: cell-based; conditions: in words
# Method: as §1, §2, §3
# [2] = Acute toxicity (LD50) in mice (i.v.); conditions: mouse, in vivo, iv
structure (smiles),measurement,setting,value
"C=C1CCc2c(N3CCC(O)C3)c(F)cc3c(=O)c(C(=O)O)cn1c23 (stereo not shown) [Ia, 9-fluoro-8-(3-hydroxy-1-pyrrolidinyl)-5-methylene-1-oxo-6,7-dihydro-1H,5H-benzo(ij)quinolizine-2-carboxylic acid]",MIC,"Ent. cloacae, 03400; Enterobacter cloacae, Ent. cloacae, 03400, Mueller-Hinton Broth, 10^6/ml, 37° C., 18 hours, read-out: MIC",0.05 µg/mL
same,MIC,"S. epidermidis, 56500",0.1 µg/mL
same,MIC,"Pr. vulgaris, 08602",0.05 µg/mL
same,MIC,"S. aureus, 209 P",0.05 µg/mL
same,MIC,"E. coli, NIHJ",0.0125 µg/mL
same,MIC,"Ps. aeruginosa, 32234",0.39 µg/mL
same,MIC,"Sh. flexneri, 2a, 5503",0.0125 µg/mL
same,MIC,"Ps. aeruginosa, 32233",0.78 µg/mL
same,MIC,"K. pneumoniae, type 1",0.1 µg/mL
same,MIC,"Pr. mirabilis, IFO-3849",0.1 µg/mL
same,MIC,"Ps. aeruginosa, 32121",0.1 µg/mL
same,MIC,"Ps. aeruginosa, 32104",0.31 µg/mL
same,MIC,"Str. pyogenes, G-36",0.39 µg/mL
same,MIC,"Ser. marcescens, 10104",0.1 µg/mL
same,MIC,[1],0.39 µg/mL
same,MIC,"B. subtilis, ATCC-6633",≤ 0.0063 µg/mL
same,MIC,"Ps. aeruginosa, 32122",0.39 µg/mL
same,antibacterial activity against Gram-positive bacteria,Gram-positive bacteria,very strong antibacterial activity
"C=C1CCc2c(N3CCC(N)C3)c(F)cc3c(=O)c(C(=O)O)cn1c23 (stereo not shown) [Ib, 8-(3-amino-1-pyrrolidinyl)-9-fluoro-5-methylene-1-oxo-6,7-dihydro-1H,5H-benzo(ij)quinolizine-2-carboxylic acid]",MIC,"Ent. cloacae, 03400; Enterobacter cloacae, 03400, 18 h",0.0125 µg/mL
same,antibacterial activity against Pseudomonas aeruginosa,Pseudomonas aeruginosa,very strong antibacterial activity
same,MIC,"S. epidermidis, 56500",0.19 µg/mL
same,MIC,"Pr. vulgaris, 08602",0.025 µg/mL
same,MIC,"S. aureus, 209 P",0.1 µg/mL
same,MIC,"E. coli, NIHJ",0.0125 µg/mL
same,MIC,"Ps. aeruginosa, 32234",0.05 µg/mL
same,MIC,"Sh. flexneri, 2a, 5503",0.0125 µg/mL
same,MIC,"Ps. aeruginosa, 32233",0.1 µg/mL
same,MIC,"K. pneumoniae, type 1",0.05 µg/mL
same,MIC,"Pr. mirabilis, IFO-3849",0.025 µg/mL
same,MIC,"Ps. aeruginosa, 32121",0.025 µg/mL
same,MIC,"Ps. aeruginosa, 32104",0.05 µg/mL
same,MIC,"Str. pyogenes, G-36",0.39 µg/mL
same,MIC,"Ser. marcescens, 10104",0.05 µg/mL
same,MIC,[1],0.39 µg/mL
same,MIC,"B. subtilis, ATCC-6633",0.025 µg/mL
same,MIC,"Ps. aeruginosa, 32122",0.1 µg/mL
"C=C1CCc2c(N3CCC(N)C3)c(F)cc3c(=O)c(C(=O)O)cn1c23 (stereo not shown) [Ib, hydrochloric acid addition salt, 8-(3-amino--pyrrolidinyl)-9-fluoro-5-methylene-6,7-dihydro-1-oxo-1H,5H-benzo(ij)quinolizine-2-carboxylic acid]",LD50,[2],252 mg/kg

# Reference: patent US4535161A, “Benzoquinolizine derivatives” (Daiichi Seiyaku Co., Ltd., priority 1982, dated 1985)
